# Reference: patent US20250186408A1, “TREATMENT OF PHARMACORESISTANT EPILEPSY” (Katholieke Universiteit Leuven, priority 2021, published 2025)
# “Also recorded” adds a separate entry of the source.
# Experiments:
# [1] = system: EKP-induced seizure behaviour in zebrafish larvae; assay: Zebrafish ethyl ketopentanoate (EKP) seizure model, behavioural analysis; format: in vivo, zebrafish (Danio rerio); conditions: for activity against EKP-induced drug-resistant seizures (behavioural) / reduction in EKP-induced drug-resistant seizures (non-significant): maximum tolerated concentration, 7-day-old larvae (FIG. 3); for activity against EKP-induced drug-resistant seizures (behavioural) / reduction in EKP-induced drug-resistant seizures (non-significant) / reduction in EKP-induced seizure behaviour (non-significant): 2 h incubation; for active in the behavioural assay / tolerated in the behavioural assay: 5 dpf larvae, 2 h; for antiseizure activity at the behavioural level (in words): FIG. 5 and FIG. 3; for reduction in EKP-induced seizure behaviour (non-significant): 5-day-old larvae
# Method: Experiments were performed as described in (16). In brief, a single 5 or 7 dpf larva was placed in each well of a 96-well plate and treated with either VHC (embryo medium with 1% DMSO) or test compound (dissolved in embryo medium, final solvent concentration of 1% DMSO) in a 100 μL volume. Larvae were incubated in the dark for 2 h at 28° C., whereafter 100 μL of either VHC (embryo medium with 1% DMSO) or 600 μM EKP (dissolved in embryo medium, final solvent concentration of 1% DMSO, 300 μM working concentration) was added to each well. Next, within 5 min the 96-well plate was placed in an automated tracking device (ZebraBox Viewpoint, France) and larval behaviour was video recorded for 30 min. The complete procedure was performed in dark conditions using infrared light. Total locomotor activity was recorded by ZebraLab software (Viewpoint, France) and expressed in actinteg units, which is the sum of pixel changes detected during the defined time interval (5 min). Larval behaviour was depicted as mean actinteg units per 5 min during the 30 min recording period and over consecutive time intervals. Data are pooled from independent experiments and expressed as mean±SD.
# In our search for novel antiseizure compounds with the potential to treat drug-resistant seizures, the zebrafish EKP seizure model was used for hit identification and as critical gate-keeper for further investigation in the pharmacoresistant mouse 6-Hz (44 mA) psychomotor seizure model. An automated behavioural analysis was done of 7-day-old zebrafish larvae using video tracking (ViewPoint, France).
# The compounds were tested in 5-day-old zebrafish larvae at 2 and/or 10 μM, depending on their tolerability, after 2 h incubation time. […] Among the antiseizure hits were compounds from 10 out of 11 classes tested, namely, propynones, propynals, propynols, propenones, amides, quinolinones, naphthyridinones, thiopyranoxides, pyrazolopyridines and indazoles.
# [2] = system: EKP-induced epileptiform discharges in zebrafish larvae; assay: Zebrafish EKP seizure model, electrophysiology (non-invasive LFP recordings, PSD analysis); format: in vivo, zebrafish (Danio rerio); conditions: 7 dpf larvae; for efficacy against EKP-induced epileptiform discharges 2 μM / efficacy against EKP-induced epileptiform discharges 10 μM: 22 h incubation, mean, normalized PSD 20-90 Hz; for effect on EKP-induced elevated PSD (in words): 22 h
# Method: Non-invasive LFP recordings were measured from the midbrain (optic tectum) of 7 dpf zebrafish larvae pre-incubated with VHC only, EKP only, or compound and EKP. […] These steps occurred at 28° C., while further manipulation and electrophysiological recordings occurred at room temperature (±21° C.) and were performed as described before (16, 27). Each recording lasted 600 seconds.
# A power spectral density (PSD) analysis of the recordings was performed using MatLab R2019 software (MATrix LABoratory, USA) as described in (26). The PSD estimate of each LFP recording was summed over each 10 Hz frequency band, ranging from 0 to 160 Hz. Next, the PSD estimates were normalized against the VHC control. Data are expressed as mean±SEM PSD per larva and per condition over the 20-90 Hz region. Outliers were identified via the ROUT test (Q=1%).
# PSD analysis assumes that the epileptiform activity manifests as a high-power oscillation at certain frequencies (26). Thus, if epileptic activity occurs often during the recording an elevated PSD estimate should be found at the corresponding frequency band(s) (26).
# male NMRI mice = assay: Mouse 6-Hz (44 mA) psychomotor seizure model; format: in vivo; conditions: for mean seizure duration / dose-response relationship (in words): 30 min before stimulation; for dose-response relationship (in words): i.p.
# Method: The antiseizure activity of compounds was investigated in the mouse 6-Hz (44 mA) psychomotor seizure model as described before (27). […] Seizure behaviour was video recorded and seizure durations were determined by blinded video analysis by experienced researchers, familiar with the different seizure characteristics. Data are expressed as mean±SD.
# The 6-Hz 44 mA model is an acute model of pharmacoresistant focal impaired awareness seizures, previously referred to as complex partial or psychomotor seizures that are induced by a low frequency, long duration corneal electrical stimulation (6 Hz, 0.2 ms rectangular pulse width, 3 s duration, 44 mA). Seizures are typically characterized by a clonic phase and stereotypical automatic behaviours like stun, forelimb clonus, Straub tail and vibrissae twitching.
smiles,measurement,setting,value
"COc1ccc(C(=O)C#Cc2ccc(C)cc2)cc1 [I.1, 1-(4-methoxyphenyl)-3-(p-tolyl)prop-2-yn-1-one]",activity against EKP-induced drug-resistant seizures (behavioural),[1],active
"Cc1ccncc1C(=O)C#Cc1ccc(C(C)(C)C)cc1 [I.11, 3-(4-(tert-butyl)phenyl)-1-(4-methylpyridin-3-yl)prop-2-yn-1-one]",activity against EKP-induced drug-resistant seizures (behavioural),[1],active
"CCCCCCC#CC(=O)c1cccnc1N [Compound 1.23, 1-(2-aminopyridin-3-yl)non-2-yn-1-one]",reduction in EKP-induced drug-resistant seizures (non-significant),[1],approximately 20%
same,efficacy against EKP-induced epileptiform discharges 2 μM,[2]; 2 μM,31%
same,efficacy against EKP-induced epileptiform discharges 10 μM,[2]; 10 μM,−25%
"CNc1ccccc1C(=O)C#Cc1ccc(C(C)(C)C)cc1 [I.14, 3-(4-(tert-butyl)phenyl)-1-(2-(methylamino)phenyl)prop-2-yn-1-one]",activity against EKP-induced drug-resistant seizures (behavioural),[1],active
"CC(C)(C)c1ccc(C#CC(=O)c2cccnc2N)cc1 [Compound 1.22, 1-(2-aminopyridin-3-yl)-3-(4-(tert-butyl)phenyl)prop-2-yn-1-one]",activity against EKP-induced drug-resistant seizures (behavioural),[1],active; also recorded: most effective
same,efficacy against EKP-induced epileptiform discharges 2 μM,[2]; 2 μM,45%
"CCCCCCC#CC(=O)c1ccc(C(=O)OCC)cc1 [I.7, ethyl 4-(non-2-ynoyl)benzoate]",reduction in EKP-induced drug-resistant seizures (non-significant),[1],approximately 20%
"CC(C)(C)c1ccc(-c2cc(=O)c3cccnc3[nH]2)cc1 [Compound 8.1, 2-(4-(tert-butyl)phenyl)-1,8-naphthyridin-4(1H)-one]",activity against EKP-induced drug-resistant seizures (behavioural),[1],active
same,efficacy against EKP-induced epileptiform discharges 2 μM,[2]; 2 μM,57%
same,efficacy against EKP-induced epileptiform discharges 10 μM,[2]; 10 μM,−117%
same,mean seizure duration,male NMRI mice; 30 mg/kg i.p.,12.5 s
same,mean seizure duration,male NMRI mice; 100 mg/kg i.p.,9.7 s
same,mean seizure duration,male NMRI mice; 300 mg/kg i.p.,2.8 s
same,mean seizure duration,male NMRI mice; 600 mg/kg i.p.,0 s
same,dose-response relationship (in words),male NMRI mice,displayed a dose-response relationship
"Nc1ncccc1C(=O)C#Cc1ccc(Cl)c(Cl)c1 [Compound 1.13, 1-(2-aminopyridin-3-yl)-3-(3,4-dichlorophenyl)prop-2-yn-1-one]",active in the behavioural assay,[1],active
same,tolerated in the behavioural assay,[1],tolerated
"O=C(C#Cc1ccc(Cl)cc1)c1ccccc1 [Compound 1.31, 3-(4-chlorophenyl)-1-phenylprop-2-yn-1-one]",active in the behavioural assay,[1],active
same,tolerated in the behavioural assay,[1],tolerated
"O=C(C#Cc1cccc(Cl)c1)c1cccnc1N1CCOCC1 [Compound 1.21, 3-(3-chlorophenyl)-1-(2-morpholinopyridin-3-yl)prop-2-yn-1-one]",active in the behavioural assay,[1],active
same,tolerated in the behavioural assay,[1],tolerated
"CCCCCCC#CC(=O)c1ccsc1 [I.9, 1-(thiophen-3-yl)non-2-yn-1-one]",activity against EKP-induced drug-resistant seizures (behavioural),[1],active
"O=C(C#CC1CC1)c1ccsc1 [I.10, 3-cyclopropyl-1-(thiophen-3-yl)prop-2-yn-1-one]",activity against EKP-induced drug-resistant seizures (behavioural),[1],active
"O=c1cc(-c2ccccc2)[nH]c2ccccc12 [III.1, 2-phenylquinolin-4(1H)-one]",reduction in EKP-induced drug-resistant seizures (non-significant),[1],approximately 20%
"CCCCCCC#CC(=O)c1ccccc1N [I.6, 1-(2-aminophenyl)non-2-yn-1-one]",reduction in EKP-induced drug-resistant seizures (non-significant),[1],approximately 20%
"O=C(C#Cc1cccc(Cl)c1)c1cccnc1Cl [Compound 1.20, 3-(3-chlorophenyl)-1-(2-chloropyridin-3-yl)prop-2-yn-1-one]",active in the behavioural assay,[1],active
same,tolerated in the behavioural assay,[1],tolerated
"CCCC(CCC)C(=O)[O-].[Na+] [valproate, sodium valproate, reference compound]",protection against the electrically induced seizures (in words),"male NMRI mice; 300 mg/kg i.p., positive control",completely protected
"Nc1ncccc1C(=O)N1CCN(c2cccc(Cl)c2)CC1 [Compound 6.1, (2-aminopyridin-3-yl)(4-(3-chlorophenyl)piperazin-1-yl)methanone]",efficacy against EKP-induced epileptiform discharges 2 μM,[2]; 2 μM,61%
same,efficacy against EKP-induced epileptiform discharges 10 μM,[2]; 10 μM,10%
same,mean seizure duration,male NMRI mice; 30 mg/kg i.p.,15.5 s
same,mean seizure duration,male NMRI mice; 100 mg/kg i.p.,4.3 s
same,mean seizure duration,male NMRI mice; 300 mg/kg i.p.,0.5 s
same,mean seizure duration,male NMRI mice; 600 mg/kg i.p.,0.5 s
same,dose-response relationship (in words),male NMRI mice,displayed a dose-response relationship
"CC(C)(C)c1ccc(C#CC(=O)c2ccsc2)cc1 [I.8, 3-(4-(tert-butyl)phenyl)-1-(thiophen-3-yl)prop-2-yn-1-one]",activity against EKP-induced drug-resistant seizures (behavioural),[1],active
"CC(C)(C)c1ccc(-c2cc(=O)c3ccccc3[nH]2)cc1 [Compound 7.1, 2-(4-(tert-butyl)phenyl)quinolin-4(1H)-one]",antiseizure activity at the behavioural level (in words),[1],significant antiseizure activity
same,activity against EKP-induced drug-resistant seizures (behavioural),[1],active
same,effect on EKP-induced elevated PSD (in words),[2]; 2 μM,significantly elevated the PSD
same,efficacy against EKP-induced epileptiform discharges 2 μM,[2]; 2 μM,−118%
same,effect on EKP-induced elevated PSD (in words),[2]; 10 μM,significantly elevated the PSD
same,efficacy against EKP-induced epileptiform discharges 10 μM,[2]; 10 μM,−217%
"Cc1ccc(C#CC(=O)c2ccc([N+](=O)[O-])cc2)cc1 [I.2, 1-(4-nitrophenyl)-3-(p-tolyl)prop-2-yn-1-one]",activity against EKP-induced drug-resistant seizures (behavioural),[1],active
"CC(C)(C)c1ccc(C#CC(=O)c2ccc(N)cc2)cc1 [I.4, 1-(4-aminophenyl)-3-(4-(tert-butyl)phenyl)prop-2-yn-1-one]",activity against EKP-induced drug-resistant seizures (behavioural),[1],active
"CC(C)(C)c1ccc(C#CC(=O)c2ccccc2N)cc1 [I.5, 1-(2-aminophenyl)-3-(4-(tert-butyl)phenyl)prop-2-yn-1-one]",activity against EKP-induced drug-resistant seizures (behavioural),[1],active
"CC(C)(C)c1ccc(C#CCc2ccccc2)cc1 [Compound 4.1, 1-(tert-butyl)-4-(3-phenylprop-1-yn-1-yl)benzene]",reduction in EKP-induced seizure behaviour (non-significant),[1]; 2 μM,approximately 23%
same,reduction in EKP-induced seizure behaviour (non-significant),[1]; 10 μM,~19%
same,antiseizure activity at the behavioural level (in words),[1],did not show significant activity
same,efficacy against EKP-induced epileptiform discharges 2 μM,[2]; 2 μM,38%
"O=C(C#Cc1cccc(F)c1)c1ccccc1 [Compound 1.35, 3-(3-fluorophenyl)-1-phenylprop-2-yn-1-one]",active in the behavioural assay,[1],active
same,tolerated in the behavioural assay,[1],tolerated
